Results on 22 compounds are retold here after patent US6903238B2, “Substituted indenones as estrogenic agents” (Wyeth, priority 2001, dated 2005).

Series [1] addresses T1, human ERβ (Homo sapiens, UniProt Q92731).
T1 construct: M250-V595 of human ERα [Green, et al., Nature 320: 134-9 (1986)] and M214-Q530 of human ERβ; Flag (C); made in house; host or cells: E. coli BL21(DE3)
The series can be described thus: Radioligand binding competition with [3H]-17β-estradiol, ERβ.

Series [2] concerns the target T2, human ERα (Homo sapiens, UniProt P03372).
T2 sequence (P03372 250-595): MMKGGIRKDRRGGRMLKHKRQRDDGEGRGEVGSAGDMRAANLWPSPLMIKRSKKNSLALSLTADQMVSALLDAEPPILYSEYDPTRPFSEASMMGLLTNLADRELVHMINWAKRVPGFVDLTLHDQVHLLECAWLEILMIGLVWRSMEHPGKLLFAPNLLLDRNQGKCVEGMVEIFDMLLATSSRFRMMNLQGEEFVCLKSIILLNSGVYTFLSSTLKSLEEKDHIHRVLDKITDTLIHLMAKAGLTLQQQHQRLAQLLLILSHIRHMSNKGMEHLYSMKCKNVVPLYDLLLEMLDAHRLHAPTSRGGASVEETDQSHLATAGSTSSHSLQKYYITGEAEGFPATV
In words: Radioligand binding competition with [3H]-17β-estradiol, ERα. To be noted: read-out: ER-α IC50.

For series [3], the system named is metallothionein-II mRNA in Saos-2 cells. In words: Regulation of metallothionein II mRNA in Saos-2 cells. The series is classed as cell-based.
[4] abbreviates: competition with [3H]-17β-estradiol, human ERα ligand binding domain.
Setting [5] is: competition with [3H]-17β-estradiol, human ERβ ligand binding domain, read-out: ER-β IC50.

Read-outs that look alike come from different tables or passages of the source.

T1 sequence (Q92731 214-530): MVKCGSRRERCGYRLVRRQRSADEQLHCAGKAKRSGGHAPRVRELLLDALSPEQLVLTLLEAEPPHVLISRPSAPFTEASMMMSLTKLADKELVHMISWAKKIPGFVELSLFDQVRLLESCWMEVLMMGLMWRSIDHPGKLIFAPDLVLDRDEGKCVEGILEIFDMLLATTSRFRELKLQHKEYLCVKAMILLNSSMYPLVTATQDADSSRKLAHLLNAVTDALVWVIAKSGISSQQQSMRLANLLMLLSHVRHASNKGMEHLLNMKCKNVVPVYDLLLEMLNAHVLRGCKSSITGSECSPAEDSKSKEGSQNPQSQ

As for `NC1=C(c2ccc(O)cc2)C(=O)c2ccc(O)cc21` [Example 1, 3-Amino-5-hydroxy-2-(4-hydroxyphenyl)-1H-inden-1-one], the melting point (commonly the temperature of the solid-liquid transition) is 260 to 265 °C. The IC50 – broadly, the concentration that inhibits the measured activity by half – in series [1] is 1150 nM. In addition, the IC50 in series [2] (setting [4]) was above 5000 nM.

`O=C1c2ccc(O)cc2C(=O)C1c1ccc(O)cc1` (stereo not drawn) [Example 2, 5-Hydroxy-2-(4-hydroxyphenyl)-1H-indene-1,3(2H)-dione]: the melting point lay within 227 to 228 °C. Also, the IC50 in series [1] (setting [5]) was determined as 2630 nM.

`O=C1C(c2ccc(O)cc2)=C(Br)c2ccc(O)cc21` [Example 3, 3-Bromo-6-hydroxy-2-(4-hydroxyphenyl)-1H-inden-1-one]: the melting point is 240 °C (dec.). In series [2] (setting [4]), the IC50 stood at 290 nM. For the same compound, the “Fold upregulation of metallothionein-II mRNA” value (from here on “Fold upregulation”) in series [3] turned out to be 10.8.

Regarding `O=C1C(c2ccc(O)cc2)=C(Br)c2cc(O)ccc21` [Example 4, 3-Bromo-5-hydroxy-2-(4-hydroxyphenyl)-1H-inden-1-one], the melting point is 245 °C (dec.). The compound further came in with an IC50 in series [1] of 2 nM. In addition, the IC50 in series [2] (setting [4]) was determined as 5 nM. For the same compound, in series [3], the “Fold upregulation” value is 10.4.

With `CCNC1=C(c2ccc(O)cc2)C(=O)c2cc(O)ccc21` [Example 5, 3-(Ethylamino)-6-hydroxy-2-(4-hydroxyphenyl)-1H-inden-1-one], the melting point is 250 °C (dec.). Also, in series [1] (setting [5]), the IC50 turned out to be 2700 nM. The IC50 in series [2] (setting [4]) was above 5000 nM.

The compound `CCSC1=C(c2ccc(O)cc2)C(=O)c2cc(O)ccc21` [Example 6, 3-(Ethylthio)-6-hydroxy-2-(4-hydroxyphenyl)-1H-inden-1-one] returned a melting point of 78 to 81 °C. Also, the concentration for half-maximal inhibition (IC50) in series [1] (setting [5]) worked out at 8 nM. Further, the IC50 in series [2] (setting [4]) turned out to be 10 nM.

`CCSC1=C(c2ccc(O)cc2)C(=O)c2ccc(O)cc21` [Example 7, 3-(Ethylthio)-5-hydroxy-2-(4-hydroxyphenyl)-1H-inden-1-one] showed a melting point of 118 to 120 °C. Besides, the IC50 in series [1] (setting [5]) came to 150 nM. In addition, the IC50 in series [2] (setting [4]) was 400 nM.

`CSC1=C(c2ccc(O)cc2)C(=O)c2cc(O)ccc21` [Example 8, 6-hydroxy-2-(4-hydroxyphenyl)-3-(methylthio)-1H-inden-1-one]: the melting point is 90 to 92 °C. For the same compound, the IC50 in series [1] (setting [5]) was 3 nM. In addition, the IC50 in series [2] (setting [4]) is 12 nM.

`CSC1=C(c2ccc(O)cc2)C(=O)c2ccc(O)cc21` [Example 9, 5-hydroxy-2-(4-hydroxyphenyl)-3-(methylthio)-1H-inden-1-one] showed a melting point of 183 to 185 °C. The IC50 in series [1] is 1 nM. In series [2] (setting [4]), the IC50 was 3 nM.

With `O=C1C(c2ccc(O)cc2)=C(c2ccccc2)c2ccc(O)cc21` [Example 10, 6-hydroxy-2-(4-hydroxyphenyl)-3-phenyl-1H-inden-1-one], the melting point was 100 to 110 °C. In series [1], this compound showed an IC50 of 8 nM. The IC50 in series [2] (setting [4]) came to 10 nM.

Take `O=C1C(c2ccc(O)cc2)=C(c2ccccc2)c2cc(O)ccc21` [Example 11, 5-hydroxy-2-(4-hydroxyphenyl)-3-phenyl-1H-inden-1-one]: the melting point fell in the range of 222 to 225 °C. In series [1], this compound showed an IC50 of 5 nM. In addition, in series [2] (setting [4]), the 50% inhibitory concentration (IC50) amounted to 15 nM.

`CC1=C(c2ccc(O)cc2)C(=O)c2cc(O)ccc21` [Example 12, 6-hydroxy-2-(4-hydroxyphenyl)-3-methyl-1H-inden-1-one]: the melting point lay within 240 to 245 °C. Besides, in series [1] (setting [5]), the IC50 came out at 11 nM. Besides, the IC50 in series [2] (setting [4]) was 55 nM.

`CC1=C(c2ccc(O)cc2)C(=O)c2ccc(O)cc21` [Example 13, 5-hydroxy-2-(4-hydroxyphenyl)-3-methyl-1H-inden-1-one] displayed a melting point of 251 °C. For the same compound, the IC50 in series [1] (setting [5]) came to 2 nM. Also, in series [2] (setting [4]), the IC50 is 6 nM.

`O=C1c2cc(O)cc(O)c2C(=O)C1c1ccc(O)cc1` (stereo not drawn) [Example 14, 4,6-dihydroxy-2-(4-hydroxyphenyl)-1H-inden-1,3(2H)-dione] gave a melting point of 220 to 222 °C. The IC50 in series [1] (setting [5]) amounted to 1380 nM.

Consider `O=C1C(c2ccc(O)cc2)=C(Br)c2c(O)cc(O)cc21` [Example 15, 3-bromo-4,6-dihydroxy-2-(4-hydroxyphenyl)-1H-inden-1-one], for which the melting point was 350 °C (dec.). In addition, the IC50 in series [1] (setting [5]) is 267 nM. Moreover, in series [2] (setting [4]), the IC50 amounted to 714 nM. Besides, in series [3], the “Fold upregulation” value was 5.6.

Turning to `COc1cc(O)cc2c1C(Br)=C(c1ccc(O)cc1)C2=O` [Example 16, 3-bromo-6-hydroxy-2-(4-hydroxyphenyl)-4-methoxy-1H-inden-1-one], the melting point is 210 °C (dec.). Also, in series [1] (setting [5]), the IC50 is 150 nM. For the same compound, the 50% inhibitory concentration (IC50) in series [2] (setting [4]) worked out at 200 nM.

In the case of `CC1=C(c2ccc(O)cc2)C(=O)c2c(O)cc(O)cc21` [Example 17, 5,7-Dihydroxy-2-(4-hydroxyphenyl)-3-methyl-1H-inden-1-one], the melting point lay within 215 to 217 °C. This compound gave an IC50 in series [1] of 2 nM. Besides, in series [2] (setting [4]), the IC50 came out at 31 nM.

In turn, `CSC1=C(c2ccc(O)cc2)C(=O)c2cc(O)cc(O)c21` [Example 18, 4,6-Dihydroxy-2-(4-hydroxyphenyl)-3-(methylthio)-1H-inden-1-one] had a melting point of 208 to 210 °C.

As for `CCSC1=C(c2ccc(O)cc2)C(=O)c2cc(O)cc(O)c21` [Example 19, 3-(Ethylthio)-4,6-Dihydroxy-2-(4-hydroxyphenyl)-1H-inden-1-one], the melting point was in the range of 187 to 190 °C. Moreover, in series [1], the IC50 turned out to be 2 nM. Further, the IC50 in series [2] (setting [4]) is 3 nM.

In turn, `O=C1C(c2ccc(O)cc2)=C(c2ccccc2)c2c(O)cc(O)cc21` [Example 20, 4,6-Dihydroxy-2-(4-hydroxyphenyl)-3-phenyl-1H-inden-1-one] gave a melting point of 223 to 225 °C. In series [1] (setting [5]), the IC50 amounted to 44 nM. Moreover, the IC50 in series [2] (setting [4]) was determined as 47 nM.

`O=C1C(c2ccc(O)cc2)=C(c2ccccc2)c2cc(O)cc(O)c21` [Example 21, 5,7-Dihydroxy-2-(4-hydroxyphenyl)-3-phenyl-1H-inden-1-one] displayed a melting point of 128 to 130 °C. For the same compound, the IC50 in series [2] came to 3 nM.

Compound `CC1=C(c2ccc(O)cc2)C(=O)c2cc(O)c(O)cc21` [Example 22, 5,6-Dihydroxy-2-(4-hydroxyphenyl)-3-methyl-1H-inden-1-one] showed a melting point of 226 to 229 °C. Further, in series [1] (setting [5]), the IC50 was 131 nM. Moreover, the IC50 in series [2] (setting [4]) came to 76 nM.
